Test results: US10144915B2, “Reprogramming fibroblasts into cardiomyocytes” (The J. David Gladstone Institutes, a testamentary trust …, priority 2013, dated 2018)

Key:
SAPK2/p38 = SAPK2/p38 (Homo sapiens, UniProt Q16539); settings: CK1 and ALK5 inhibitor versus SAPK2/p38; cited from earlier work
adenylate cyclase 1 = adenylate cyclase 1 (Homo sapiens, UniProt Q08828); settings: cited from earlier work
[1] = test system: cardiomyocytes generated from mouse tail tip fibroblasts (TTFs); test: β-adrenergic and muscarinic stimulation of induced cardiomyocytes (beating, Ca2+ transients); type: cell-based; settings: applied locally
Procedure: Myocytes were loaded with 5 μM Fluo-4 AM (Molecular Probes, Invitrogen Corp, Carlsbad, Calif.), a Ca^++ indicator dye for 20 minutes at room temperature followed by 20 minutes in dye-free extracellular solution to allow for Fluo-4 de-esterification prior to commencing recordings. Ca^++ transients were recorded via a standard filter set (#49011 ET, Chroma Technology Corp., Bellows Falls, Vt.) and a photomultiplier-based recording system (lonOptix PMT400, Milton, Mass.). Fluorescence was recorded simultaneously from an entire myocyte cluster. Between sampling periods, excitation light was blocked by a shutter (CS35; Vincent Associates, Rochester, N.Y.) and background fluorescence was recorded after removing the cell(s) from the field of view at the end. Where applicable, 1 μM isoproterenol (Iso) or 25 μM carbachol (Cch) were applied locally (to the cell cluster of interest) using a perfusion pencil (AutoMate Scientific, Berkeley, Calif.).
Intact […] nervous system responses to hormones and transmitters are one of the most critical characteristics of normal cardiomyocytes. […] After washing out carbachol, cells resumed contracting and the Ca^2+ transients immediately returned to normal (FIG. 4H).

Sequence of adenylate cyclase 1 (Q08828 whole entry): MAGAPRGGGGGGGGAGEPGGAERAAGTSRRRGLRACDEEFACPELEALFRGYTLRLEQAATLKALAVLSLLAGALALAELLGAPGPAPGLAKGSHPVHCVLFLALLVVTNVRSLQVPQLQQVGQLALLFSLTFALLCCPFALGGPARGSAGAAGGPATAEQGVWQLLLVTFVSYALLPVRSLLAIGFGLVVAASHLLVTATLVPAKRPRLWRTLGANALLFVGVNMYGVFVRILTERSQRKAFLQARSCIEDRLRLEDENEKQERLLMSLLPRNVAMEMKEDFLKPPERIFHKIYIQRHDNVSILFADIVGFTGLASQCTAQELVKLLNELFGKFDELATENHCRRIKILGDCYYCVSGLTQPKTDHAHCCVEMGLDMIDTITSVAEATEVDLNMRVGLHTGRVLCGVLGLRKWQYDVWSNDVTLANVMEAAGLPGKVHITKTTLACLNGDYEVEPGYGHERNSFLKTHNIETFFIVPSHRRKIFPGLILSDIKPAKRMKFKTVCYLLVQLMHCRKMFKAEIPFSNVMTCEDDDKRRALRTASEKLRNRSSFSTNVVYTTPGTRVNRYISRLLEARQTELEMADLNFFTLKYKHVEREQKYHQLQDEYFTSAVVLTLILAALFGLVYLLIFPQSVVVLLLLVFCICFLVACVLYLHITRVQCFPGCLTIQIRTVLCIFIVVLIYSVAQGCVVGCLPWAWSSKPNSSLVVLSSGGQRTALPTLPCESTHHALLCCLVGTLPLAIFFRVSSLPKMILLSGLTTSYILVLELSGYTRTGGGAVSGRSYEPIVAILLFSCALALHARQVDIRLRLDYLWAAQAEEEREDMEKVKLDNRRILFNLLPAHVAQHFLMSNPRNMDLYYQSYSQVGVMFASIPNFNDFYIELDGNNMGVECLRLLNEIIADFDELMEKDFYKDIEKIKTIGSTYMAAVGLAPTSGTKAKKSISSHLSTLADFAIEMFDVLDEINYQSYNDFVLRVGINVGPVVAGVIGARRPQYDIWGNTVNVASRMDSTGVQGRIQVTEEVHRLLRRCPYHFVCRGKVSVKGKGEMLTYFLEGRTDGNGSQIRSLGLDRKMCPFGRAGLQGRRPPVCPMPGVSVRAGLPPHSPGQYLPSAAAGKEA
Sequence of SAPK2/p38 (Q16539 whole entry): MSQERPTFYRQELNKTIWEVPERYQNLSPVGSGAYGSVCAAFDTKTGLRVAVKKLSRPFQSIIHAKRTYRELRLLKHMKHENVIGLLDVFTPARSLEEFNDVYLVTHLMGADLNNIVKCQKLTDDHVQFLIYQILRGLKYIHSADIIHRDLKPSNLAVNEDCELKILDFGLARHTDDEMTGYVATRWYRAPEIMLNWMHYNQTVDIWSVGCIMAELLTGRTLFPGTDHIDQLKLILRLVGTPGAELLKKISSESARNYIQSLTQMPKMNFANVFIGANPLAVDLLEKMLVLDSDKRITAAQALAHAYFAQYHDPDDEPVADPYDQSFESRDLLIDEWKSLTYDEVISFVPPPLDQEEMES

## NC(=O)c1ccc(-c2nc(-c3ccc4c(c3)OCCO4)c(-c3ccccn3)[nH]2)cc1 [D 4476, 4-[4-(2,3-Dihydro-1,4-benzodioxin-6-yl)-5-(2-pyridinyl)-1H-imidazol-2-yl]benzamide]
SAPK2/p38
  selectivity over SAPK2/p38: greater than 20 fold

## C=C[C@@]1(C)CC(=O)[C@]2(O)[C@@]3(C)[C@@H](O)CCC(C)(C)[C@@H]3[C@H](O)[C@H](OC(C)=O)[C@@]2(C)O1 [Forskolin]
Adenylate cyclase 1
  IC50: 40 to 150 nM

## C[N+](C)(C)CCOC(N)=O [carbachol]
[1]; 25 μM, reversible on wash-out
  frequency of cell contracting and spontaneous calcium transients: opposite effect

## CC(C)NCC(O)c1ccc(O)c(O)c1 (stereo not shown) [isoproterenol]
[1]; 1 μM
  frequency of cell contracting and spontaneous calcium transients: significantly increased
